Legend:
[1] = biological target: Catalase (from bovine liver), native (nC) (Bos taurus, UniProt P00432); conditions: 50 mM phosphate buffer pH 7.4
Protocol: (§1) SOD1 (from bovine erythrocytes), hydrogen peroxide (H2O2), 2,3,5-triphenyltetrazolium chloride (TTC) and copper standards for Inductively Coupled Plasma Mass Spectroscopy (ICP-MS)—TraceCERT®, 1000 mg/L Cu in nitric acid) were from Sigma-Aldrich (St. Louis, Mo.). Catalase (from bovine liver) was from Calbiochem (Gibbstown, N.J.). PEG-pLL50 was from Alamanda Polymers™ (Huntsville, Ala.). […] Cross-linkers 3,3′-dithiobis(sulfosuccinimidylpropionate) (DTSSP) and bis(sulfosuccinimidyl)suberate (BS^3) were from Thermo Fisher Scientific (Rockford, Ill.). NAP™ desalting columns and HiPrep 16/60 Sephacryl S-400 HR column were from GE Healthcare (Piscataway, N.J.). Criterion Tris-HCl gels and Precision Plus Protein™ All Blue Standards were from Bio-Rad (Hercules, Calif.). SYPRO® Ruby protein gel stain and cell culture reagents were purchased from Invitrogen (Carlsbad, Calif.). CellTiter 96® AQueous One Solution Cell Proliferation Assay (MTS) was from Promega (Madison, Wis.). LumiMax Superoxide Anion Detection Kit was from Agilent Technologies, Inc. (Santa Clara, Calif.). All other reagents and supplies were from Fisher Scientific (Pittsburgh, Pa.) unless noted otherwise.

[2] = biological target: Catalase (from bovine liver), DTSSP cross-linked cl-nanozyme with PEG-pLL50, purified (C2p) (Bos taurus, UniProt P00432)
Sequence of Catalase (from bovine liver), DTSSP cross-linked cl-nanozyme with PEG-pLL50, purified (C2p) (P00432 whole entry): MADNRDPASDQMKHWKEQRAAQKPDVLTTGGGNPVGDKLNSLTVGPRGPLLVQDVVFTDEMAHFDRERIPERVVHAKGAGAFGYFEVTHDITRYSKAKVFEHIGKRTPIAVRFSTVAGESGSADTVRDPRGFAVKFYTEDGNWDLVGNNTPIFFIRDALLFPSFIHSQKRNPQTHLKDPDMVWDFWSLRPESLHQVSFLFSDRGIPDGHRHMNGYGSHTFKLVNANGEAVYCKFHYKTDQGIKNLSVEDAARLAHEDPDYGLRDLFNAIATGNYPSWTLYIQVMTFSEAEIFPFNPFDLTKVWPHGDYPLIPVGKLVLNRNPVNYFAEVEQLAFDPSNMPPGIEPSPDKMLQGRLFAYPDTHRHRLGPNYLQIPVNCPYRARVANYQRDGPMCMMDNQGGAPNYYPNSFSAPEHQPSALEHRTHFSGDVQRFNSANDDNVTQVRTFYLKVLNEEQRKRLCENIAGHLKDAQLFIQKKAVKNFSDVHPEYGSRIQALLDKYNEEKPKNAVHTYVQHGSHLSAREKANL
Protocol: as §1
(§2) Enzyme and polymer stock solutions were prepared in 10 mM HEPES (pH 7.4) and 10 mM HEPES-buffered saline (HBS; pH 7.4) for SOD1 and catalase, respectively. Non-cross-linked BICs (Z+/−=2) were prepared as described (Klyachko et al. (2012) Nanomed. Nanotechnol. Biol. Med., 8:119-129). Targeted degree of cross-linking was defined as the molar ratio between cross-linker (DTSSP/BS^3) and pLL amines. Precalculated amount of the respective cross-linker was dissolved in the reaction buffer (HEPES/HBS), quickly added to BICs, and the reaction mixture was briefly vortexed and incubated for 2 hours on ice. Unreacted crosslinker was desalted using NAP™ columns following manufacturer's instructions. Cl-Nanozymes were purified using size exclusion chromatography (SEC) (small/intermediate scale) or centrifugal filtration (large scale). SEC was carried out using an ÄKTA™ Fast Protein Liquid Chromatography (FPLC) (Amersham Biosciences, Piscataway, N.J.) system. DTSSP cl-nanozymes were lyophilized overnight, reconstituted in deionized water (DW), loaded onto a HiPrep 16/60 Sephacryl™ S-400 HR column and eluted using 10 mM HBS (pH 7.4) at a flow rate of 0.5 mL/minute. Prior to each experiment, the column was pre-conditioned with free block copolymer (PEG-pLL50) to minimize non-specific adsorption of the cl-nanozymes (Boeckle et al. (2004) J. Gene Med., 6:1102-1111). Fractions spanning each distinct peak were pooled, concentrated using Amicon® Ultra-4 Centrifugal Filter Units with a molecular weight cutoff (MWCO) of 3000 Da and desalted using NAP™ columns as needed. Protein concentration was determined using Micro BCA™ Protein Assay Kit. In large-scale preparations, clnanozymes were purified by centrifugal filtration using Macrosep™ Centrifugal Device (Pall Life Sciences, Ann Arbor, Mich.) with a MWCO of either 100 kDa (for SOD1) or 1000 kDa (for catalase). Briefly, unreacted cross-linker in cross-linked BICs was desalted using NAP™ columns and eluate was collected in 10 mM HEPES containing 0.3 M NaCl (pH 7.4). Samples were loaded onto the centrifugal device and concentrated to 10% original volume by centrifuging at 4500 RPM. Two rounds of purification were done in 10 mM HEPES buffer containing 0.3 M NaCl (pH 7.4) and the third round was done in 10 mM HEPES buffer (pH 7.4). […]

[3] = biological target: Catalase (from bovine liver), DTSSP cross-linked cl-nanozyme with PEG-pLL50, non-purified (C2) (Bos taurus, UniProt P00432)
Sequence of Catalase (from bovine liver), DTSSP cross-linked cl-nanozyme with PEG-pLL50, non-purified (C2) (P00432 whole entry): as above
Protocol: as §1, §2

Sequence of Catalase (from bovine liver), native (nC) (P00432 whole entry): as above

OO [H2O2, hydrogen peroxide]
Kcat/Km [1]: 1.5e+07 M⁻¹ s⁻¹ | Kcat/Km ([2]; 50 mM phosphate buffer pH 7.4, C2p): 7.75e+06 M⁻¹ s⁻¹ | catalytic efficiency (kcat/Km), per cent lower than nC ([2]; purified cl-nanozyme (C2p) compared to native enzyme (nC)): ca. 48% | catalytic efficiency (kcat/Km), per cent lower than C2 ([2]; purified cl-nanozyme (C2p) compared to non-purified (C2)): ~53% | Kcat/Km ([3]; 50 mM phosphate buffer pH 7.4, C2): 1.66e+07 M⁻¹ s⁻¹ | increase in Km value ([3]; non-purified cl-nanozyme (C2) compared to native catalase (nC)): ca. 1.8 fold

Reference: patent US20140120075A1, “Nanozyme Compositions and Methods of Synthesis and Use Thereof” (Board of Regents of the University of Nebraska, priority 2011, published 2014)
